Experimental data reported in publication PMC7315563, “Bioactive fluorenes. Part III: 2,7-dichloro-9H-fluorene-based thiazolidinone and azetidinone analogues as anticancer and antimicrobial against multidrug resistant strains agents” (BMC Chemistry, 2020).
≈ marks a conversion by molar mass, not a printed value.

Experiments:
[1] = test system: A549 human lung cancer cells; experiment: cell viability assay (MTT); assay type: cell-based; settings: 24 h; for viability at 1 µg/mL: read-out: Validity (%) for sample concentrations (µg/mL) 1; for viability at 10 µg/mL: read-out: Validity (%) for sample concentrations (µg/mL) 10; for viability at 31.25 µg/mL: read-out: Validity (%) for sample concentrations (µg/mL) 31.25; for viability at 62.5 µg/mL: 62.50 µg/mL, read-out: Validity (%) for sample concentrations (µg/mL) 62.50; for viability at 125 µg/mL: read-out: Validity (%) for sample concentrations (µg/mL) 125; for viability at 250 µg/mL: read-out: Validity (%) for sample concentrations (µg/mL) 250; for viability at 500 µg/mL: read-out: Validity (%) for sample concentrations (µg/mL) 500; for viability at 1000 µg/mL: read-out: Validity (%) for sample concentrations (µg/mL) 1000
[2] = test system: WI-38 human normal fibroblast cells; experiment: cell viability assay (MTT); assay type: cell-based; settings: 24 h; for viability at 31.25 µg/mL: read-out: Validity (%) for sample concentrations (µg/mL) 31.25; for viability at 62.5 µg/mL: 62.50 µg/mL, read-out: Validity (%) for sample concentrations (µg/mL) 62.50; for viability at 125 µg/mL: read-out: Validity (%) for sample concentrations (µg/mL) 125; for viability at 250 µg/mL: read-out: Validity (%) for sample concentrations (µg/mL) 250; for viability at 500 µg/mL: read-out: Validity (%) for sample concentrations (µg/mL) 500
Procedure, shortened: (§1)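 Cells were seeded at 5000/well in RPMI-1640 with 10% FBS. The next day they were exposed to fluorene derivatives at 0–500 µg/mL for 24 h. Viability was measured by MTT absorbance at 570 nm.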

[3] = test system: MDA-MB-231 human breast cancer cells; experiment: cell viability assay (MTT); assay type: cell-based; settings: 24 h; for viability at 1 µg/mL: read-out: Validity (%) for sample concentrations (µg/mL) 1; for viability at 10 µg/mL: read-out: Validity (%) for sample concentrations (µg/mL) 10; for viability at 31.25 µg/mL: read-out: Validity (%) for sample concentrations (µg/mL) 31.25; for viability at 62.5 µg/mL: read-out: Validity (%) for sample concentrations (µg/mL) 62.5; for viability at 125 µg/mL: read-out: Validity (%) for sample concentrations (µg/mL) 125; for viability at 250 µg/mL: read-out: Validity (%) for sample concentrations (µg/mL) 250; for viability at 500 µg/mL: read-out: Validity (%) for sample concentrations (µg/mL) 500
Procedure, shortened: as §1

[4] = test system: Escherichia coli (E. coli), multidrug resistant clinical isolate; experiment: agar well diffusion assay; assay type: cell-based; settings: 24 h, 500 µg/mL of tested compound
Source text: (§2) All microbial strains were kindly provided from the department of Medical Microbiology and Immunology faculty of Medicine Assiut University, these clinical isolates were obtained from clinical cases of infections admitted to Assiut University hospital as urinary tract infections, corneal ulcers, bacterial and fungal pneumonia, otomycosis, oral thrush and wound infections.
(§3) The clinical isolates used were multidrug resistant strains, they were resistant to β lactam (penicillin, amoxacillin, oxacillin), cephalosporins (cefazolin, cefaclor and cefepime) and macrolides (erythromycin and clarithromycin), they included Gram positive bacteria as Staphylococcus aureus (S. aureus), Methicillin-resistant Staphylococcus aureus (MRSA), Streptococcus pneumoniae (S. pneumoniae), and Gram negative bacteria as Escherichia coli (E. coli), Klebsiella pneumoniae (K. pneumoniae), Pseudomonas aeruginosa (P. aeruginosa), and Acinetobacter baumannii (A. baumannii). The fungal strains that were tested are Aspergillus flavus (A. flavus), A. niger (A. niger) and Candida albicans (C. albicans).
(§4) The antimicrobial activity of the fluorene derivatives was initially evaluated by agar well diffusion assay. Mueller–Hinton agar (CM0337) was poured into Petri dishes at 50–60 °C and left to solidify for 15 min. Subsequently, overnight microbial suspensions of tested strains was adjusted to turbidity of 0.5 McFarland Standard, which equals to 1–2 × 10^8 CFU/mL for bacteria and 1–5 × 10^6 for fungi. The microbial inoculums were then diluted in 1:100 ratio in case of bacteria and 1:10 ratio in case of fungi in order to get 1–5 × 10^5 CFU/mL. a sterile cotton swab was dipped into the adjusted microbial suspension and the Mueller–Hinton agar plates were inoculated by evenly streaking cotton swab over the agar medium. Then wells with a diameter of 0.5 cm were cut in the medium with a sterile cork borer. Stock solutions of the flourene derivatives were diluted in DMSO 1% to get 500 μg/mL concentrations. The tested flourene derivatives and controls (50 μL) were dispensed into the wells. The plates were incubated for 24 h at 37 °C for bacteria and C. albicans while at 25 °C for A. falvus and A. niger. The diameters of zones of inhibition (ZOI) around the wells were measured in mm. Following control agents were used: positive control agents—vancomycin (50 μg/mL) for Gram positive bacteria, gentamicin (10 μg/mL) (for Gram negative bacteria) and fluconazole 25 μg/mL for fungi and negative control agent is 1% DMSO.

[5] = test system: Staphylococcus aureus (S. aureus), multidrug resistant clinical isolate; experiment: agar well diffusion assay; assay type: cell-based; settings: Staphylococcus aureus; S. aureus; 500 µg/mL of tested compound; 24 h
Source text: as §2, §3, §4

[6] = test system: Klebsiella pneumoniae (K. pneumoniae), multidrug resistant clinical isolate; experiment: agar well diffusion assay; assay type: cell-based; settings: 24 h, 500 µg/mL of tested compound
Source text: as §2, §3, §4

Structure (SMILES)	viability at 1 µg/mL [1] [%]	viability at 10 µg/mL [1] [%]	viability at 31.25 µg/mL [1] [%]	viability at 62.5 µg/mL [1] [%]	viability at 125 µg/mL [1] [%]	viability at 250 µg/mL [1] [%]	viability at 500 µg/mL [1] [%]	viability at 1000 µg/mL [1] [%]	IC50 [1] [mg/L]	melting point [°C]	viability at 31.25 µg/mL [2] [%]	viability at 62.5 µg/mL [2] [%]	viability at 125 µg/mL [2] [%]	viability at 250 µg/mL [2] [%]	viability at 500 µg/mL [2] [%]	IC50 [2] [mg/L]	viability at 1 µg/mL [3] [%]	viability at 10 µg/mL [3] [%]	viability at 31.25 µg/mL [3] [%]	viability at 62.5 µg/mL [3] [%]	also measured
O=C1CSC(c2ccncc2)N1c1nc(-c2cc(Cl)cc3c2-c2ccc(Cl)cc2C3)cs1 (centres unmarked) [5m, 3-(4-(2,7-Dichloro-9H-fluoren-4-yl)thiazol-2-yl)-2-(pyridin-4-yl)thiazolidin-4-one]	94	92.5	70.7	67.5	64.5	56.5	37.3	20.1	357 (≈ 719 µM)	110 to 112	68.5	64.6	42.3	40.3	26.5	92 (≈ 185 µM)	97.3	89.5	85.4	88.3	viability at 125 µg/mL [3]: 76.9%; viability at 250 µg/mL [3]: 65.6%; viability at 500 µg/mL [3]: 50.6%; IC50 [3]: 505 mg/L (≈ 1020 µM); zone of inhibition at 500 µg/mL [4]: 8 mm; zone of inhibition at 500 µg/mL [5]: 5 mm
O=C1CSC(c2ccnc3ccccc23)N1c1nc(-c2cc(Cl)cc3c2-c2ccc(Cl)cc2C3)cs1 (centres unmarked) [5n, 3-(4-(2,7-Dichloro-9H-fluoren-4-yl)thiazol-2-yl)-2-(quinolin-4-yl)thiazolidin-4-one]	94.2	91.2	83.1	78.6	70.7	58.9	27.3	8.02	380 (≈ 695 µM)	204 to 206	54.3	51.5	50.8	46.4	40.5	130 (≈ 238 µM)	98.7	91	92.8	90.6	viability at 125 µg/mL [3]: 76.8%; viability at 250 µg/mL [3]: 58.7%; viability at 500 µg/mL [3]: 27.2%; IC50 [3]: 315 mg/L (≈ 576 µM); zone of inhibition at 500 µg/mL [5]: 7 mm; zone of inhibition at 500 µg/mL [6]: 5 mm
O=C1C(Cl)C(c2ccccc2)N1c1nc(-c2cc(Cl)cc3c2-c2ccc(Cl)cc2C3)cs1 (centres unmarked) [6a, 3-Chloro-1-(4-(2,7-dichloro-9H-fluoren-4-yl)thiazol-2-yl)-4-phenylazetidin-2-one]	98.6	89.1	79.2	75.9	70.3	30.7	20.8	14.4	185 (≈ 372 µM)	118 to 120	71.1	66.1	59.1	49.1	47.1	241 (≈ 484 µM)	99.4	92.4	90.7	83.1	viability at 125 µg/mL [3]: 78.3%; viability at 250 µg/mL [3]: 69.6%; viability at 500 µg/mL [3]: 63.2%; IC50 [3]: > 500 mg/L; zone of inhibition at 500 µg/mL [4]: 13 mm; zone of inhibition at 500 µg/mL [5]: 5 mm
O=C1C(Cl)C(C=Cc2ccccc2)N1c1nc(-c2cc(Cl)cc3c2-c2ccc(Cl)cc2C3)cs1 (centres unmarked) [6i, 3-Chloro-1-(4-(2,7-dichloro-9H-fluoren-4-yl)thiazol-2-yl)-4-styrylazetidin-2-one]	96.6	91.9	89.4	78.1	76.3	67.9	53.3	49.4	801 (≈ 1530 µM)	110 to 112	83.1	76.5	56.5	49.2	39.2	240 (≈ 458 µM)	94.2	89.1	66.8	55.9	viability at 125 µg/mL [3]: 49.2%; viability at 250 µg/mL [3]: 24.3%; viability at 500 µg/mL [3]: 18.2%; IC50 [3]: 120 mg/L (≈ 229 µM); zone of inhibition at 500 µg/mL [4]: 12 mm; zone of inhibition at 500 µg/mL [6]: 3 mm
